Experiments:
COS-7 cells [1] = assay: Toxicity study, residual protein content of COS-7 cells
COS-7 cells [2] = assay: Transfection of COS-7 cells (CAT-assay); format: cell-based

CCCCCCCCC=CCCCCCCCCC(CCCCCCCCC=CCCCCCCCC)c1cc[n+](C)cc1.[Cl-] (stereo not drawn) [SAINT-2, 1-Methyl-4-(19-cis,cis-heptatritiaconta-9,28-dienyl)pyridinium Chloride]
lipid concentration from which decrease of protein content was observed (COS-7 cells [1]): 90 µM
toxicity compared with DOTMA-DOPE (COS-7 cells [1]): clearly less toxic
residual protein content after decrease (COS-7 cells [1]; decrease from 2 mg/ml): 1.75 mg/mL
transfection efficiency with respect to DOTMA/DOPE vesicles (COS-7 cells [2]; COS-7 cells, FIG. 1): eight
transfection efficiency with respect to Lipofectine (COS-7 cells [2]; dependent on the cell type): at least eight

Reference: patent publication US6726894B1, “Transport vehicles for macromolecules” (priority 1995, dated 2004)
